Measured values: patent US9714951B2, “Pharmaceutical compositions containing peptides derived from human BPLP protein” (INSTITUT PASTEUR, priority 2004, dated 2017)
pIC50: −log10 of the molar value. Entries after “also recorded” stand apart in the source; their conditions may differ. Each block holds one compound with its values, some of them ahead of it. Ends that are not written are not given here.

Columns and labels:
formalin-induced pain [1] = conditions: iv; cited from earlier work
formalin-induced pain [2] = test: formalin test, behavioral rat model of acute pain; type: in vivo; conditions: for time spent in paw licking, early phase: first 20 min after formalin, vehicle 144±17 s
Excerpt: […]. […] […].

[3] = system: human cell surface endopeptidases; test: metabolism of YQRFSR by human cell membranes containing NEP (RP-HPLC); type: in vitro ADME; conditions: 175 μM
Excerpt: FIG. 8 is a RP-HPLC chromatographic analysis of the YQRFSR peptide (SEQ ID NO: 4).
The inventors used the tritiated 3H-YQRFSR peptide (SEQ ID NO: 4) to establish the pharmacokinetic and pharmacodynamic parameters, of this human functional peptidomimetic of rat sialorphin in vivo in adult male rat (biodistribution-bioavailability-clearance) as well as to define its metabolism mechanism and turnover in vivo and in vitro, (FIG. 8).

[4] = target: T1, human NEP (human ecto-endopeptidase activity, LNCaP cell line) (Homo sapiens, UniProt P08473); test: breakdown of substrate (substance P, McaBK2) by LNCaP human cell membranes; type: biochemical; conditions: for effect on substance P hydrolysis by cell surface ectopeptidases: bestatin 25 μM, captopril 10 μM
T1 construct: in the experimental model of static incubation of human LNCaP cell membranes; endogenous in cells; host or cells: LNCaP (human prostate adenocarcinoma) membrane preparation, NEP induced by DHT

[5] = target: T2, rat NEP ecto-endopeptidase activity (renal tissue) (Rattus norvegicus, UniProt P07861); test: breakdown of substance P by rat renal NEP ecto-endopeptidase activity; type: biochemical
T2 construct: rat NEP ecto-endopeptidase activity (renal tissue); from tissue; host or cells: rat kidney (renal tissue)
T2 sequence (P07861 1-750): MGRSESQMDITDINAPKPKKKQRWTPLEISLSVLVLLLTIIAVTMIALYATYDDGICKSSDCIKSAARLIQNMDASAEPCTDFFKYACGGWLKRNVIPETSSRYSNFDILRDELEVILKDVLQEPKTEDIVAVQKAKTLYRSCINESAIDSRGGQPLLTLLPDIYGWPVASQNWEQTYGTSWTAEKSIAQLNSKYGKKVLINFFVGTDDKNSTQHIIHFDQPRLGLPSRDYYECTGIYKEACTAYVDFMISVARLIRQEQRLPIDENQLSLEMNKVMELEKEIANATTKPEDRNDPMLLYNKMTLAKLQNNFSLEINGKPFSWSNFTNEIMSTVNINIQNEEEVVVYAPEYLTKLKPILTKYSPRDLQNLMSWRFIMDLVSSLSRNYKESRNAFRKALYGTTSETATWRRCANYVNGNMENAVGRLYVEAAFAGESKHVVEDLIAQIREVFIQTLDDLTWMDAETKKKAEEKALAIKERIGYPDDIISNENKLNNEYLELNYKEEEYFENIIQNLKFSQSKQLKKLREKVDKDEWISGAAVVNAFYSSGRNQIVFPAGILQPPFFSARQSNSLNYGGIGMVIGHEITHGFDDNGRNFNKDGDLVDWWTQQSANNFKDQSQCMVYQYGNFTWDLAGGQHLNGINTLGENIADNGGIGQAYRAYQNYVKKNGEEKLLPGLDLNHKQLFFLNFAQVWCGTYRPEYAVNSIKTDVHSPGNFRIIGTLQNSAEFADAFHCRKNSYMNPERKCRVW
Procedure: Briefly, for membrane preparations, the cells were homogenised at 4° C. in 10 volumes (vol./wt.) of 50 mM Tris/HCl buffered at pH 7.1. A first centrifugation at 1000×g and 5° C. for 5 min allows to remove the cellular debris and the nuclei in the pellet. A second centrifugation at 100 000×g and 5° C. for 30 min concentrates the membrane fraction in the pellet, which will be superficially washed three times in cold Tris/HCl buffer, resuspended in fresh buffer, aliquoted and stored at −80° C. while waiting to be used as enzyme source.
Hydrolysis of substrates was measured by monitoring the metabolism rate in conditions of initial velocity measurement in the presence and absence of specific inhibitors. These were added to the preincubation medium. The standard reaction mixture consisted of cell membranes in a final volume of 200 μl Tris-HCl 50 mM pH 6.5-7.2. The substrate was added after preincubation for 10 min and the digestion carried out for 20 min at 25° C. in a constantly shaken water bath. The reaction was terminated by cooling to 4° C. and adding HCl (0.3N final concentration). The reaction tubes were then centrifuged (4700×g for 15 min at 4° C.) and the remaining intact substrate and its metabolites measured.
The intact tritiated substrate was eluted with 75-100% methanol-0.1% TFA (4 ml). • RP-HPLC coupled to a spectrophotometer was used to analyse the hydrolysis of Met-enkephalin, (C-18 LUNA column, AIT). […] Their identities and relative quantities (peak height) were checked by monitoring the column outflow at 264 nm (L3000, Merck). • The disappearance of the initial Met-enkephalin substrate was also quantified by radioimmunoassay (RIA). […] The radioactivity of each fraction was determined by liquid scintillation spectrometry.

spinal and renal NEP = target: T3, spinal and renal NEP (Rattus norvegicus, UniProt P07861); conditions: membrane-bound NEP; read-out: IC50 of inhibition of the breakdown of substance P; cited from earlier work
T3 construct: host or cells: spinal cord and kidney tissue
T3 sequence (P07861 1-750): T2 sequence (P07861 1-750)

[6] = target: T4, soluble purified renal NEP (Oryctolagus cuniculus, UniProt P08049); conditions: DGNPA substrate, read-out: IC50 of inhibition of NEP activity; cited from earlier work
T4 construct: host or cells: kidney (purified, soluble)
T4 sequence (P08049 1-750): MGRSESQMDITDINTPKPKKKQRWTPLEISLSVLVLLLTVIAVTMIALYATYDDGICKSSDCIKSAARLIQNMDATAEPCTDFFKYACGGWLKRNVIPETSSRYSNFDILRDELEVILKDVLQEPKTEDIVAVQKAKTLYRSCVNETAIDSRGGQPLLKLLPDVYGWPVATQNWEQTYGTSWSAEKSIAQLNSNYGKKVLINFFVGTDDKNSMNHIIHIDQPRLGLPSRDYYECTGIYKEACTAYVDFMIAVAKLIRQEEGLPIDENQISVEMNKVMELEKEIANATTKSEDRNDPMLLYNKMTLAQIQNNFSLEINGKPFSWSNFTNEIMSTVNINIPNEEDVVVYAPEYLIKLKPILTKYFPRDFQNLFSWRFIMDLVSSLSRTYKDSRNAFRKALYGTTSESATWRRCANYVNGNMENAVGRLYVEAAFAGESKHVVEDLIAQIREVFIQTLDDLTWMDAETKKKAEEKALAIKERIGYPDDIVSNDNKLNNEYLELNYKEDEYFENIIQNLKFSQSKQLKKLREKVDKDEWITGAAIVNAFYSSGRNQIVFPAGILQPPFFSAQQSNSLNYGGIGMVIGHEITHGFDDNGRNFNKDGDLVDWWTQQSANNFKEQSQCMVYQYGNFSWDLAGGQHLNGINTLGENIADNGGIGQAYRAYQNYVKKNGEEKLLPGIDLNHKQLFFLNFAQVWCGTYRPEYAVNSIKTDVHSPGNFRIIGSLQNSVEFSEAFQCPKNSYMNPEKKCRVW

[7] = target: T5, soluble recombinant human DPP IV (Homo sapiens, UniProt P27487); test: endoproteolysis of substance P by soluble recombinant hDPPIV; type: biochemical; conditions: 25 or 50 μM peptide
T5 construct: (without the N-terminal cytosol and transmembrane segment)
T5 sequence (P27487 29-766 limits assumed): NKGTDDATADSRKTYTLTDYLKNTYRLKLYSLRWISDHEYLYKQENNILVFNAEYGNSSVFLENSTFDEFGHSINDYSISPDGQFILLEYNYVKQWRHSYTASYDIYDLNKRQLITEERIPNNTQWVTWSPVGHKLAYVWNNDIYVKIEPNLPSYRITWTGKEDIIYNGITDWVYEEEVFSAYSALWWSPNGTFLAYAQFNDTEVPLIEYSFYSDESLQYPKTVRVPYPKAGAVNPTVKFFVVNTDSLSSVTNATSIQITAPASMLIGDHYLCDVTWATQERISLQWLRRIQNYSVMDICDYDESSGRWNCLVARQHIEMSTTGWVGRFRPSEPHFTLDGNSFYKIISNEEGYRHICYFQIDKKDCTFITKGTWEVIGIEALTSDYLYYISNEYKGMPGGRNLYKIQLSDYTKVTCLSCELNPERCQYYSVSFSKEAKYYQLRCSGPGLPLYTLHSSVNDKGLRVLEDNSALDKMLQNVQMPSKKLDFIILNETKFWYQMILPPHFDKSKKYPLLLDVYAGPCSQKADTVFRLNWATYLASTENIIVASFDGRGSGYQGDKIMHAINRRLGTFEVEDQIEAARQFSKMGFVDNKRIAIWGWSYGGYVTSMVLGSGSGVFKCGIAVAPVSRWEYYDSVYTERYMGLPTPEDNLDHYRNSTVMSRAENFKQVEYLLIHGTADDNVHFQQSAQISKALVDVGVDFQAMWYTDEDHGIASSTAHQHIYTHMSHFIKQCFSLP

T1 sequence (P08473 whole entry): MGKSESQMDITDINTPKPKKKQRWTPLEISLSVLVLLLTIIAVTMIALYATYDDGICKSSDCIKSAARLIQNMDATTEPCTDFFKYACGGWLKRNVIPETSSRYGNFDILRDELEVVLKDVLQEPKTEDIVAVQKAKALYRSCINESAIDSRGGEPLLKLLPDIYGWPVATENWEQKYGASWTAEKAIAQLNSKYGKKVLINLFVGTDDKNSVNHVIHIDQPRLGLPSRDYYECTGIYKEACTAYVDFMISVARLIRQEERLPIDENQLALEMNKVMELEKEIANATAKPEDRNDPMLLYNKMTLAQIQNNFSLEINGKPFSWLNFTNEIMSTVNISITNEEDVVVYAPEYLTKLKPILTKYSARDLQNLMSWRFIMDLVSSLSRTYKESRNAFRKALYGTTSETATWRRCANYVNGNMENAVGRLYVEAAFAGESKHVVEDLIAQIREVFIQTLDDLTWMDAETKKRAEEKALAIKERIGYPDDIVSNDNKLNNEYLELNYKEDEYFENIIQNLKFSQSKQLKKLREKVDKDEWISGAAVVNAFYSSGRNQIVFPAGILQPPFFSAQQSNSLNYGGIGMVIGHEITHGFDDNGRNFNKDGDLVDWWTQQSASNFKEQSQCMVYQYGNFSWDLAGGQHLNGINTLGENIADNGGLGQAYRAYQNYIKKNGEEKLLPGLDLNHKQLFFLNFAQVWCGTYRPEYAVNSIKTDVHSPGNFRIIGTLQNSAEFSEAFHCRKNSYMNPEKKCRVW

Compound: CSCC[C@H](N)CSSCC(Cc1ccccc1)C(=O)N[C@@H](Cc1ccccc1)C(=O)OCc1ccccc1 (stereo partly shown) [RB101]
effective doses in formalin-induced pain model (formalin-induced pain [1]): 2.5 to 5 mg/kg

Compound: N=C(N)NCCC[C@H](NC(=O)[C@H](CO)NC(=O)[C@H](Cc1ccccc1)NC(=O)[C@H](CCCNC(=N)N)NC(=O)[C@H](CCC(N)=O)NC(=O)[C@@H](N)Cc1ccc(O)cc1)C(=O)O [YQRFSR]
time spent in paw licking, early phase (formalin-induced pain [2]; 0.5 mg/kg systemic): 97 ± 14 s
time spent in paw licking, early phase (formalin-induced pain [2]; 1 mg/kg systemic): 84 ± 13 s
time spent in paw licking, late phase (formalin-induced pain [2]; 1 mg/kg, 40 to 60 min after formalin, vehicle 63±13 s): 9 ± 3 s
analgesia in the presence of an opioid receptor antagonist (formalin-induced pain [2]; with nalaxone): totally reversed
metabolism by human cell membranes containing NEP ([3]; in vitro): not metabolized
recovered as intact peptide ([3]; with human cell membranes containing NEP, 94% in absence of membranes): 93%
inhibitory potency towards ectoendopeptidase from human cells [4]: 5000 to 50000 nM
inhibition of substance P endoproteolysis by human cell membranes ([4]; peptide 175 μM): 70%
pIC50 [5]: 4.42
inhibitory potency towards ectoendopeptidase from rat tissues [5]: 5000 to 75000 nM

effect on substance P hydrolysis by cell surface ectopeptidases [4]: did not inhibit
Compound: CC(C)C[C@H](NC(=O)[C@@H](O)[C@H](N)Cc1ccccc1)C(=O)O [bestatin]

effect on substance P hydrolysis by cell surface ectopeptidases [4]: did not inhibit
Compound: C[C@H](CS)C(=O)N1CCC[C@H]1C(=O)O [captopril]

Compound: O=C(O)CNC(=O)C(CS)Cc1ccccc1 (stereo not shown) [thiorphan]
inhibition at 0.5 µM ([4]; read-out: maximum inhibitory potency on LNCaP membrane activity): 62%

inhibitory potency towards ectoendopeptidase from rat tissues [5]: ≧50 μM
Compound: QHNP (listed as Rattus rattus)

inhibitory potency against membrane-anchored human NEP (LNCaP) relative to rodent NEP (rat, rabbit), fold lower ([4]; human LNCaP vs rodent NEP): about 10 fold
inhibitory potency towards ectoendopeptidase from human cells [4]: 4000 to 40000 nM
inhibitory potency towards ectoendopeptidase from rat tissues [5]: 400 to 4000 nM
Compound: QHNPR
pIC50 (spinal and renal NEP): 6.00 to 6.40
pIC50 [6]: 6.22
effective doses in formalin-induced pain model (formalin-induced pain [1]): 0.1 to 0.2 mg/kg

effect on breakdown of SP by recombinant hDPPIV [7]: no effect; also recorded: not prevented
Compound: QRFSR [QRFSR]

effect on substance P endoproteolysis induced by LNCaP human cell membranes ([4]; 20-90 μM): no effect
inhibitory potency towards ectoendopeptidase from human cells [4]: ≧90 μM
Compound: QRGPR (listed as Homo sapiens)

inhibitory potency towards ectoendopeptidase from human cells [4]: ≧90 μM
Compound: QRGPRGP (listed as Homo sapiens)
